Experimental data as given in US20170129958A1, “COMBINATION THERAPY” (ImClone LLC, priority 2014, published 2017).
Like-named read-outs stand apart in the source and are kept apart here.

Assays:
[1] = test system: patients with advanced STS; settings: interim analysis; for Disease Control Rate (CR + PR + SD) (%) (90% CI) / ORR (CR + PR) (%) (90% CI): RECIST 1.1
Experimental: The Study is an open-label, multicenter, Phase 2 trial in which patients with advanced STS not amenable to treatment with surgery or radiotherapy are treated with olaratumab in combination with doxorubicin or doxorubicin alone.
Enrolled patients who meet all eligibility criteria are randomized 1:1 to one of two treatment arms, Arm A or Arm B. Arm A patients receive olaratumab in combination with doxorubicin (hereinafter the “Combination Arm”) and Arm B patients receive doxorubicin alone (hereinafter the “Doxorubicin Arm”). Randomization of this Study is performed according to a dynamic randomization algorithm using 4 pre-defined risk factors: PDGFRα expression (positive vs. negative), number of previous lines of treatment (0 vs. 1+lines), histological tumor type (i.e., leiomyosarcoma vs. synovial sarcoma vs. other tumor type), and ECOG performance status (0-1 vs. 2). This dynamic randomization procedure is used to minimize imbalance between treatment groups. To determine tumor type and PDGFRα expression in patients, a tumor sample from either a biopsy or previously archived tumor tissue sample is sufficient. Biopsy is required to be performed within 21 days prior to randomization; archived tissue sample must also be available within this timeframe.
Combination Arm: 64 patients randomized in the Combination Arm receive 15 mg/kg of olaratumab on Days 1 and 8 of each 21-day treatment cycle, in combination with 75 mg/m^2 doxorubicin administered on Day 1 of each cycle. (Note: if premedication is required prior to the first doxorubicin infusion, this is to be done after the completion of olaratumab infusion, not before the olaratumab infusion. This premedication may be administered within the hour that follows completion of the olaratumab infusion.) The actual (not planned) administration of each doxorubicin infusion defines Day 1 of each 21-day treatment cycle. The combination treatment just described is to continue for up to 8 cycles at the investigator's discretion. During Cycles 5 through 8, patients being treated with doxorubicin may also be administered 750 mg/m^2 dexrazoxane on Day 1 of each cycle, (at the investigator's discretion) prior to doxorubicin on Day 1 of each 21-day cycle. If the dose of doxorubicin is reduced at any point in the Study, the dose of dexrazoxane is to be reduced accordingly, maintaining a dosage ratio of 10:1. For example, if doxorubicin is reduced to 60 mg/m^2, then dexrazoxane is to be reduced to 600 mg/m^2. Doxorubicin may be administered within the hour that follows completion of the olaratumab infusion. In the absence of PD or other withdrawal criteria, patients in the Combination Arm who have completed eight cycles of therapy are to receive subsequent olaratumab monotherapy, administered on Days 1 and 8 of each 21-day cycle. Furthermore, if doxorubicin is discontinued (e.g., for reasons of toxicity) prior to end of cycle 8 and in the absence of withdrawal criteria, patients may continue to receive olaratumab monotherapy. For patients who discontinue olaratumab during the first 8 cycles of treatment, doxorubicin may be continued (for up to 8 cycles), provided no withdrawal criteria are met.
Doxorubicin Arm: 65 patients randomized in the Doxorubicin Arm receive 75 mg/m^2 doxorubicin on Day 1 of each cycle, for up to 8 cycles at the investigator's discretion. The actual (not planned) administration of each doxorubicin infusion defines Day 1 of each 21-day treatment cycle. During cycles 5 through 8, 750 mg/m^2 dexrazoxane may also be administered on Day 1 of each cycle, (at the investigator's discretion) prior to doxorubicin on Day 1 of each 21-day cycle. If the dose of doxorubicin is reduced at any point in the Study, the dose of dexrazoxane is to be reduced accordingly, maintaining a dosage ratio of 10:1. For example, if doxorubicin is reduced to 60 mg/m^2, then dexrazoxane is to be reduced to 600 mg/m^2.

[2] = test system: SKLMS-1 leiomyosarcoma xenograft; assay: SKLMS-1 leiomyosarcoma xenograft model; assay type: in vivo, nu/nu athymic mice; settings: day 21; olaratumab 60 mg/kg (loading dose 214 mg/kg), doxorubicin 3 mg/kg, i.p. twice a week; versus saline control
Experimental: 6 to 7-week-old female nu/nu athymic mice are injected with 5×10^6 SKLMS-1 (ATCC #HBT-88) cells/mouse in 50% Matrigel (BD Biosciences #356235). When tumors are approximately 300 mm^3 in volume, the mice are randomized by tumor volume into 4 treatment groups (n=12): Group 1 control mice are dosed with USP Saline (Aldwin Scientific #2F7124) at 10 μL/gram, Group 2 mice are dosed with olaratumab at 60 mg/kg (loading dose 214 mg/kg), Group 3 mice are dosed with doxorubicin (Sigma #D-1515) at 3 mg/kg and Group 4 mice are dosed with a combination of olaratumab and doxorubicin at the monotherapy concentrations of 60 mg/kg olaratumab and 3 mg/kg doxorubicin. The combinations are dosed so that olaratumab is administered 1-2 hours prior to doxorubicin on the days of treatment. All treatments are administered via intra-peritoneal injection twice a week on Tuesday and Friday.
(§1) Olaratumab and doxorubicin are prepared in USP Saline. Tumor volume is measured by three dimensional caliper measurements twice a week during the course of the study and calculated as volume in mm^3=L (longer of measured dimension)×W^2 (shorter dimension)×(pi/6). […] Relative changes in tumor volume (% T/C) are calculated using the tumor volume measurements taken at day 21 and the baseline tumor volume is the volume recorded on or just prior to first day of dosing.

[3] = test system: KHOS/NP osteosarcoma xenograft; assay: KHOS/NP osteosarcoma xenograft model; assay type: in vivo, nu/nu athymic mice; settings: day 32; olaratumab 60 mg/kg (loading dose 214 mg/kg), doxorubicin 3 mg/kg, i.p. twice a week; versus saline control
Experimental: 6 to 7-week-old female nu/nu athymic mice are injected with 1×10^6 KHOS/NP (ATCC #CRL-1544) cells/mouse in 50% Matrigel (BD Biosciences #356235). When tumors are approximately 450 mm^3 in volume, the mice are randomized by tumor volume into 4 treatment groups (n=12): Group 1 control mice are dosed with USP Saline (Aldwin Scientific #2F7124) at 10 μL/gram, Group 2 mice are dosed with olaratumab at 60 mg/kg (loading dose 214 mg/kg), Group 3 mice are dosed with doxorubicin (Sigma #D-1515) at 3 mg/kg and Group 4 mice are dosed with a combination of olaratumab and doxorubicin at the monotherapy concentrations of 60 mg/kg olaratumab and 3 mg/kg doxorubicin. The combinations are dosed so that doxorubicin is administered 3 hours prior to olaratumab on the days of treatment. All treatments are administered via intra-peritoneal injection twice a week on Monday and Thursday.
as §1, with “32, whereas” for “21 and”

[4] = test system: A204 rhabdoid tumor xenograft; assay: A204 rhabdoid xenograft model; assay type: in vivo, nu/nu athymic mice; settings: day 30; olaratumab 40 mg/kg i.p. 3x a week; versus HuIgG control
Experimental: 7 to 8-week-old female nu/nu athymic mice are injected with 5×10^6 A204 (ATCC #CRL-7900) cells/mouse in 100% Matrigel (BD Biosciences #356235). When tumors are approximately 340 mm^3 in volume, the mice are randomized by tumor volume into 2 treatment groups (n=12): Group 1 control mice are dosed with HuIgG (Equitech-Bio #SLH66-0001) at 40 mg/kg and Group 2 mice are dosed with olaratumab at 40 mg/kg. All treatments are administered via intra-peritoneal injection 3×a week on Monday, Wednesday and Friday.
Olaratumab is diluted in USP Saline (Aldwin Scientific #2F7124) at 4 mg/mL. Tumor volume is measured by three dimensional caliper measurements twice a week during the course of the study and calculated as volume in mm^3=L (longer of measured dimension)×W^2 (shorter dimension)×(pi/6). A repeated measures ANOVA is used to evaluate the differences in tumor growth and body weight between the treatment groups. Relative changes in tumor volume (%T/C) are calculated using the tumor volume measurements taken at day 30, whereas the baseline tumor volume is the volume recorded on or just prior to first day of dosing.

[5] = patients sub-typed with leiomyosarcoma

Row | Molecule | OS Median Weeks (90% CI) ([1]; all STS subtypes, Kaplan-Meier) | PFS Median Weeks (90% CI) ([1]; all STS subtypes, Kaplan-Meier, olaratumab 15 mg/kg Days 1 and 8, doxorubicin 75 mg/m^2 Day 1, 21-day cycle) | 12-month OS rate ([1]; 12 months) | 18-month OS rate ([1]; 18 months) | Disease Control Rate (CR + PR + SD) (%) (90% CI) [1] | ORR (CR + PR) (%) (90% CI) [1] | Disease Control Rate (CR + PR + SD) (%) (90% CI) ([1]; listed as Doxorubicin Arm) | ORR (CR + PR) (%) (90% CI) ([1]; listed as Doxorubicin Arm) | PFS Other Sarcoma Median Weeks (90% CI) ([1]; patients sub-typed as other sarcomas) | OS Leiomyosarcoma Median Weeks (90% CI) [1, 5] | PFS Leiomyosarcoma Median Weeks (90% CI) [1, 5] | OS Other Sarcoma Median Weeks (90% CI) ([1]; patients sub-typed with other sarcomas) | % T/C (relative change in tumor volume) [2] | % T/C (relative change in tumor volume) [3] | % T/C (relative change in tumor volume) [4]
1 | COc1cccc2c1C(=O)c1c(O)c3c(c(O)c1C2=O)C[C@@](O)(C(=O)CO)C[C@@H]3O[C@H]1C[C@H](N)[C@H](O)[C@H](C)O1 [doxorubicin] | 58.7 weeks | 17.9 weeks | 55.1% | 40.0% | 53.8% | 10.8% | 53.8% | 10.8% | 19.0 weeks | 45.3 weeks | 15.7 weeks | 78.1 weeks | 64% | 72% | 
2 | olaratumab: recombinant human monoclonal IgG1 anti-PDGFRα antibody; two heavy chains SEQ ID NO: 9, two light chains SEQ ID NO: 10; CAS 1024603-93-7 |  |  |  |  |  |  |  |  |  |  |  |  | 64% | 79% | 37%
